# Assay results taken from patent publication US9382433B2, “Ketocoumarins as photoinitiators and photosensitizers in printing inks and coatings” (SUN CHEMICAL CORPORATION, priority 2012, dated 2016).
# How the values were obtained:
# [1] = Cure index (set-off cure test, sum of DL values); details: Offset Black Ink 1; ketocoumarin 5.10% in Inventive PI Blend 1; ~32 mJ per pass, 100 m/min; lower is superior cure
# Protocol: Offset Black Ink 1—based on a urea-formaldehyde resin, trifunctional acrylate and approximately 13% carbon black pigment.
# (§1) The inks were printed onto a carton board substrate (Incada Exel coated board from Iggesund) to a density of approximately 1.8-2.0 using an IGT C1 print proofer. These were cured at 100 m/min using a Primarc UV rig fitted with a single 300 W/inch medium pressure mercury lamp, operating at half power (˜32 mJ per pass). The number of passes required to cure was measured by a “set-off cure test” which is done by visually comparing the extent to which after each pass the ink has transferred to a piece of blank substrate under 10 tons pressure for 5 seconds. […] The amount of set-off is then measured using color computer software, which determines the average color density of the set-off ink compared to a blank piece of substrate. The amount of set-off is measured as the lightness “DL” of the blank substrate vs. the transferred ink film, measured using a Spectraflash 650 spectrophotometer. The DL value is measured for each pass of the ink underneath the curing lamp, using a fresh piece of substrate for each pass until the ink is deemed fully cured and there is no visible ink transfer. The cure index is calculated by adding the individual DL values and rounding the sum to the nearest whole number. For example, if 4 passes under the curing lamp was required to cure a given ink film, and the DL values for the first 3 passes were 8.89, 5.27, 2.15 respectively, then the sum of the figures would be 16.31, which would be rounded to a cure index of 16. Note that there is no DL value taken after the 4th pass, as the ink film was determined to be fully cured by the visual absence of ink transferred during the set-off cure test. […] The tables below show the results for the evaluations.
# [2] = Cure index (set-off cure test, sum of DL values); details: Offset Black Ink 2; ketocoumarin 5.10% in Inventive PI Blend 2; ~32 mJ per pass, 100 m/min; lower is superior cure
# Excerpt: Offset Black Ink 2—based on a ketone functional resin, tri- and tetra-functional alkoxylated acrylates and approximately 14% carbon black pigment.
# as §1
# [3] = Cure index (set-off cure test, sum of DL values); details: Offset Black Ink 3; ketocoumarin 6.000% in Inventive PI Blend 3; ~32 mJ per pass, 100 m/min; lower is superior cure
# Excerpt: Offset Black Ink 3—based on a ketone functional resin, tri- and tetra-functional alkoxylated acrylates and approximately 14% carbon black pigment.
# as §1
# [4] = Solubility by visual inspection of ink and prints; type: physicochemical; set-up: key: Good=Soluble (no solid bits in the ink and good printability); OK=Partially insoluble (some solid bits in the ink and slightly poor printability); Poor=Very noticeable insolubility (very noticeable solid bits in the ink and poor printability); details: visual inspection of inks and prints
# Protocol: The solubility of the materials was assessed by visual inspection of the inks and from visual inspection of the prints. Insolubility is reported as follows: Good=Soluble (no solid bits in the ink and good printability); OK=Partially insoluble (some solid bits in the ink and slightly poor printability); Poor=Very noticeable insolubility (very noticeable solid bits in the ink and poor printability).
# [5] = Cure index of ink-jet magenta inks; details: ketocoumarin 6.167% in Inventive Ink-Jet PI Blend, 84 mJ per pass, 70 m/min, rounded to nearest 0.5
# Protocol: Magenta ink-jet inks were prepared to assess the performance of the inventive ketocoumarin materials an ink-jet ink formulation. The magenta ink formulation is based on 17.5% of a magenta pigment concentrate and a blend of difunctional monomers which includes propoxylated neopentylglycol diacrylate, dipropyleneglycol diacrylate, tripropylene glycol diacrylate (all at approximately 15%) and 2-(2-Vinyloxyethoxy)ethyl acrylate (at approximately 20%).
# The inks were printed onto white PE TopTrans top-coated label substrate using a No. 2 K-Bar (red). The No. 2 K-bar gives a film thickness of about 12 μm. The inks were cured at 70 m/min using a Primarc UV rig fitted with a single 300 W/inch medium pressure mercury lamp, operating at full power (84 mJ per pass). Cure index was determined using the same cure index test described above for the black offset inks.
# The cure index results in Table 12 were determined using the same test method as described for the black offset inks in Tables 7-9 with one exception; in Table 12 the cure index figures were rounded to the nearest 0.5 rather than to the nearest whole number. It should be noted that the cure index numbers are a representation of cure at a relatively low UV lamp dose compared to that used in a commercial application. A commercial application would typically use higher UV lamp dosage and all of the above formulations would perform adequately under these conditions. The experiments have been set up to highlight differences in cure and therefore have been carried out at relatively low cure dose. In the above experiments an ink with a cure index of less than 4-5 would cure adequately using commercial lamp conditions. Inks with a cure index of much lower than 4-5 are, therefore, performing very well.
SMILES,Cure index [1],Cure index [2],Cure index [3],Solubility in Ink-Jet Magenta Ink [4],Solubility in Offset Black Ink 1 [4],Solubility in Offset Black Ink 2 [4],Solubility in Offset Black Ink 3 [4],Cure index [5]
O=C(COc1ccc2cc(C(=O)c3ccccc3)c(=O)oc2c1)OCCOCCOCCOC(=O)COc1ccc2cc(C(=O)c3ccccc3)c(=O)oc2c1 [Inventive Example 11],53,23,42,OK,OK,OK,OK,1
CCCCCCCCCCCCOC(=O)COc1ccc2cc(C(=O)c3ccccc3)c(=O)oc2c1 [Inventive Example 16],52,31,56,Poor,OK,OK,OK,5
O=C(COc1ccc2cc(C(=O)c3ccccc3)c(=O)oc2c1)OCCOCCOC(=O)COc1ccc2cc(C(=O)c3ccccc3)c(=O)oc2c1 [Inventive Example 5],–,–,–,Good,–,–,–,9
"COc1ccc2cc(C(=O)c3ccccc3)c(=O)oc2c1 [Comparative Example 2, reference compound]",52,13,33,Poor,Poor,Poor,Poor,<1
CCOC(=O)COc1ccc2cc(C(=O)c3ccccc3)c(=O)oc2c1 [Inventive Example 12],46,15,26,Poor,OK,OK,OK,3
"O=C(c1ccccc1)c1cc2ccccc2oc1=O [Comparative Example 1, reference compound]",28,24,27,Poor,Poor,Poor,Poor,38
CCC(COC(=O)COc1ccc2cc(C(=O)c3ccccc3)c(=O)oc2c1)(COC(=O)COc1ccc2cc(C(=O)c3ccccc3)c(=O)oc2c1)COC(=O)COc1ccc2cc(C(=O)c3ccccc3)c(=O)oc2c1 [Inventive Example 14],28,7,14,Poor,OK,OK,OK,1
